Patent publication US20230277452A1, “COMPOSITIONS, DEVICES AND METHODS FOR TREATING NASAL, OTIC AND OTHER TISSUE INFECTION AND/OR INFLAMMATION” (priority 2020, published 2023)

Legend:
[1] = in vivo; settings: male, Merino, sheep, in vivo
Experimental: The control article was 0.9% saline.
Blood was collected (via a jugular vein cannula inserted during surgery) during the 10-day post-dose phase for pharmacokinetics, hematology, clinical chemistry, glucose, and morning cortisol analysis.
Because of the variability in the volume of the sinus in sheep, the total volume varied from 5 to 15 mL. Doses calculated by body weight and body surface area (BSA) are also shown.

[2] = Forced degradation of neat mometasone furoate monohydrate, percent recovery and degradant peaks by HPLC; format: physicochemical; parameters: key to Degradant peak, RRT 0.61 with respect to MFM / Degradant peak, RRT 0.71 with respect to MFM / Degradant peak, RRT 0.79 with respect to MFM / Degradant peak, RRT 0.87* with respect to MFM / Degradant peak, RRT 1.07 with respect to MFM / Degradant peak, RRT 1.12* with respect to MFM / Degradant peak, RRT 0.96* with respect to MFM: ≥0.05% Peak Area; detected above the 0.05% cutoff; “—” indicates no peak; settings: for Degradant peak, RRT 0.87* with respect to MFM / Degradant peak, RRT 0.96* with respect to MFM / Degradant peak, RRT 1.12* with respect to MFM: related substance; for Actual Amount: neat MFM
Experimental: Degradation and impurity analysis of the creams was performed using HPLC. The following parameters were used for the analysis of mometasone furoate monohydrate.
Neat mometasone furoate monohydrate (MFM) material was degraded and analyzed for potential chromatographic interference. Briefly, neat MFM was exposed to various conditions to induce degradation including heat (60° C./5 days), light (6 inches away from a white bench light for 5 days), acid (0.1N HCl for 1 hour followed by neutralization with 0.1N NaOH), base (0.1N NaOH for 1 hour followed by neutralization with 0.1N HCl), and oxidation (3% H2O2 for 1 hour). All samples including the degraded samples, control samples (dissolved in HPLC-grade methanol), and the reference solution were analyzed.
Percent recovery is provided in Table 48 below for each condition.
Table 49 below provides the Relative Retention Times (RRTs) and detection ≥0.05% for the samples.

[3] = Recovery of force-degraded MFM spiked into placebo cream and of active cream (0.1% MFM), HPLC; format: physicochemical; settings: for Peak Area MFM / Peak Area RRT = 0.61 / Peak Area RRT = 0.71 / Peak Area RRT = 0.79 / Peak Area RRT = 0.87 / Peak Area RRT = 0.96 / Peak Area RRT = 1.07 / Peak Area RRT = 1.12 / Total MFM-Related Area: Spiked into placebo
Experimental: MFM neat and degraded materials were spiked into placebo cream (lot #2020-11-01) to investigate potential partitioning effects and peak interferences and to compare spiked and active cream samples by the procedure in Table 50 with the exception that for acid, base and peroxide degradations, the additions of HCl, NaOH and peroxide were calculated accordingly.
Percent recovery of Force-Degraded Materials Spiked into Placebo is provided in Table 51 below while recovery of active cream formulation (0.1% MFM) is provided in Table 52 below.

[4] = Betamethasone plasma concentration, Mean
[5] = Individual betamethasone plasma concentrations
[6] = degraded neat material, 0.1N HC1
[7] = degraded neat material, 0.1N NaOH
[8] = degraded neat material, 3% H2O2
[9] = degraded neat material, 60° C. for 5 days
[10] = degraded neat material, White light for 5 days

## C[C@H]1C[C@H]2[C@@H]3CCC4=CC(=O)C=C[C@]4(C)[C@@]3(F)[C@@H](O)C[C@]2(C)[C@@]1(O)C(=O)CO [Betamethasone, betamethasone]
[1]
  AUC(0-inf): 35.2 ± 8.3 ng·h/mL
  AUC(0-t): 33.5 ± 8.9 ng·h/mL
  Cmax: 0.98 ± 0.397 ng/mL
  Tmax: 24 h
  plasma levels detected through: 3 days post-dose
  time of maximum plasma levels: about 24 hr post-dose
[1]; [4]
  concentration at 0 h: 0 ng/mL
  concentration at 0.5 h: 0.152 ng/mL
  concentration at 1 h: 0.307 ng/mL
  concentration at 2 h: 0.518 ng/mL
  concentration at 6 h: 0.74 ng/mL
  concentration at 24 h: 0.964 ng/mL
  concentration at 48 h: 0.223 ng/mL
  concentration at 72 h: 0.071 ng/mL
[1]; [5]
  concentration at 0 h: 0 ng/mL
  concentration at 48 h: 0.229 ng/mL

## C[C@@H]1C[C@H]2[C@@H]3CCC4=CC(=O)C=C[C@]4(C)[C@@]3(Cl)[C@@H](O)C[C@]2(C)[C@@]1(OC(=O)c1ccco1)C(=O)CCl [MFM, mometasone furoate monohydrate]
[2]; [6]
  Degradant peak, RRT 0.61 with respect to MFM: detected (≥0.05% Peak Area; detected above the 0.05% cutoff)
  Degradant peak, RRT 0.71 with respect to MFM: detected (≥0.05% Peak Area; detected above the 0.05% cutoff)
  Degradant peak, RRT 0.79 with respect to MFM: detected (≥0.05% Peak Area; detected above the 0.05% cutoff)
  Degradant peak, RRT 1.07 with respect to MFM: detected (≥0.05% Peak Area; detected above the 0.05% cutoff)
  Degradant peak, RRT 0.87* with respect to MFM: detected (≥0.05% Peak Area; detected above the 0.05% cutoff)
  Degradant peak, RRT 0.96* with respect to MFM: detected (≥0.05% Peak Area; detected above the 0.05% cutoff)
  Degradant peak, RRT 1.12* with respect to MFM: detected (≥0.05% Peak Area; detected above the 0.05% cutoff)
[2]; [7]
  Degradant peak, RRT 0.61 with respect to MFM: —
  Degradant peak, RRT 0.71 with respect to MFM: —
  Degradant peak, RRT 0.79 with respect to MFM: —
  Degradant peak, RRT 1.07 with respect to MFM: detected (≥0.05% Peak Area; detected above the 0.05% cutoff)
  Degradant peak, RRT 0.87* with respect to MFM: —
  Degradant peak, RRT 0.96* with respect to MFM: detected (≥0.05% Peak Area; detected above the 0.05% cutoff)
  Degradant peak, RRT 1.12* with respect to MFM: detected (≥0.05% Peak Area; detected above the 0.05% cutoff)
[2]; [8]
  Degradant peak, RRT 0.61 with respect to MFM: —
  Degradant peak, RRT 0.71 with respect to MFM: —
  Degradant peak, RRT 0.79 with respect to MFM: —
  Degradant peak, RRT 1.07 with respect to MFM: —
  Degradant peak, RRT 0.87* with respect to MFM: —
  Degradant peak, RRT 0.96* with respect to MFM: detected (≥0.05% Peak Area; detected above the 0.05% cutoff)
  Degradant peak, RRT 1.12* with respect to MFM: —
[2]; [9]
  Degradant peak, RRT 0.61 with respect to MFM: —
  Degradant peak, RRT 0.71 with respect to MFM: —
  Degradant peak, RRT 0.79 with respect to MFM: —
  Degradant peak, RRT 1.07 with respect to MFM: —
  Degradant peak, RRT 0.87* with respect to MFM: —
  Degradant peak, RRT 0.96* with respect to MFM: detected (≥0.05% Peak Area; detected above the 0.05% cutoff)
  Degradant peak, RRT 1.12* with respect to MFM: —
[2]; [10]
  Degradant peak, RRT 0.61 with respect to MFM: —
  Degradant peak, RRT 0.71 with respect to MFM: —
  Degradant peak, RRT 0.79 with respect to MFM: —
  Degradant peak, RRT 1.07 with respect to MFM: —
  Degradant peak, RRT 0.87* with respect to MFM: —
  Degradant peak, RRT 0.96* with respect to MFM: —
  Degradant peak, RRT 1.12* with respect to MFM: —
[2]; Acid (0.1N HCl, 1 hour)
  Actual Amount: 240.289 µg/mL
[2]; Base (0.1N NaOH, 1 hour)
  Actual Amount: 6.091 µg/mL
[2]; Control
  Actual Amount: 254.279 µg/mL
[2]; Heat (60° C./5 days)
  Actual Amount: 249.211 µg/mL
[2]; Light (white light, 5 days)
  Actual Amount: 249.916 µg/mL
[2]; Peroxide (3% H2O2, 1 hour)
  Actual Amount: 262.576 µg/mL
[2]; neat material, 4° C. (Control)
  Degradant peak, RRT 0.61 with respect to MFM: —
  Degradant peak, RRT 0.71 with respect to MFM: —
  Degradant peak, RRT 0.79 with respect to MFM: —
  Degradant peak, RRT 1.07 with respect to MFM: —
  Degradant peak, RRT 0.87* with respect to MFM: —
  Degradant peak, RRT 0.96* with respect to MFM: detected (≥0.05% Peak Area; detected above the 0.05% cutoff)
  Degradant peak, RRT 1.12* with respect to MFM: —
[3]; 0.1% MFM cream, HPLC
  degradation due to the cream making process: no apparent degradation
[3]; Acid
  Peak Area MFM: 116.720
  Peak Area RRT = 0.61: no peaks
  Peak Area RRT = 0.71: no peaks
  Peak Area RRT = 0.79: no peaks
  Peak Area RRT = 0.87: no peaks
  Peak Area RRT = 0.96: 2.964
  Peak Area RRT = 1.07: 0.05
  Peak Area RRT = 1.12: 0.353
  Total MFM-Related Area: 120.087
[3]; Base
  Peak Area MFM: 2.991
  Peak Area RRT = 0.61: 0.097
  Peak Area RRT = 0.71: 0.143
  Peak Area RRT = 0.79: 0.433
  Peak Area RRT = 0.87: 5.187
  Peak Area RRT = 0.96: 14.967
  Peak Area RRT = 1.07: 55.374
  Peak Area RRT = 1.12: 10.016
  Total MFM-Related Area: 89.208
[3]; Control
  Peak Area MFM: 125.120
  Peak Area RRT = 0.61: no peaks
  Peak Area RRT = 0.71: no peaks
  Peak Area RRT = 0.79: no peaks
  Peak Area RRT = 0.87: no peaks
  Peak Area RRT = 0.96: 0.171
  Peak Area RRT = 1.07: no peaks
  Peak Area RRT = 1.12: no peaks
  Total MFM-Related Area: 125.291
[3]; Heat
  Peak Area MFM: 122.536
  Peak Area RRT = 0.61: no peaks
  Peak Area RRT = 0.71: no peaks
  Peak Area RRT = 0.79: no peaks
  Peak Area RRT = 0.87: no peaks
  Peak Area RRT = 0.96: 0.161
  Peak Area RRT = 1.07: no peaks
  Peak Area RRT = 1.12: no peaks
  Total MFM-Related Area: 122.697
[3]; Light
  Peak Area MFM: 123.671
  Peak Area RRT = 0.61: no peaks
  Peak Area RRT = 0.71: no peaks
  Peak Area RRT = 0.79: no peaks
  Peak Area RRT = 0.87: no peaks
  Peak Area RRT = 0.96: 0.152
  Peak Area RRT = 1.07: no peaks
  Peak Area RRT = 1.12: no peaks
  Total MFM-Related Area: 123.823
[3]; Peroxide
  Peak Area MFM: 128.187
  Peak Area RRT = 0.61: no peaks
  Peak Area RRT = 0.71: no peaks
  Peak Area RRT = 0.79: no peaks
  Peak Area RRT = 0.87: no peaks
  Peak Area RRT = 0.96: 0.176
  Peak Area RRT = 1.07: no peaks
  Peak Area RRT = 1.12: no peaks
  Total MFM-Related Area: 128.363
